US20160074400A1, “WNT MODULATORS FOR THE PROTECTION, MITIGATION AND TREATMENT OF RADIATION INJURY” (University of Southern California, priority 2012, published 2016)

Legend:
[1] = test system: murine intestinal crypts; test: Small intestinal crypt organoid culture ex vivo, replacement of Rspo1; assay type: cell-based; details: FIG. 5
Description: Small intestinal crypt organoid culture was performed using murine intestinal crypts essentially as described by Ootani et al (Nature Medicine; online publication doi:10.1038/nm.1951, 27 Apr. 2009)), and see also Sato et al (Nature Letters doi:10.1038/nature07935, 2009), both incorporated by reference herein in their entireties.

[2] = test system: C57BL/6 mice exposed to whole body irradiation (RIGS); test: Survival (Kaplan-Meier) of mice after lethal whole body irradiation; assay type: in vivo; details: 10.4 Gy WBI; AdRspo1 5×10^9 particles/mice 1 hr and 48 hr post-IR, then ICG-001 150 mg/kg 72 hr post-IR; p<0.003
Description: C57BL/6 mice were treated with recombinant adenovirus expressing human Rspo1, AdRspo1 (5×10^9 particles/mice, 1 hr and 48 hr post-IR), followed by ICG-001 (150 mg/kg of body weight, 72 hr post-IR) after whole body irradiation (WBI) of 9.4-10.4 Gy. […] Expression of mRNA levels of β-Catenin target genes in crypt cells was determined by qRT-PCR.
To examine whether the purified recombinant hRspo1 could mitigate RIGS when administered along with ICG001, we treated C57BL/6 mice after 10.4 Gy of WBI with the combination of recombinant hRspo1+ICG-001. Specifically, C57BL/6 mice (n=10), exposed to 10.4 Gy single fraction WBI, were treated with hRspo1 (20 mg/kg of body weight s.c.) at 24 hr and 48 hr post-WBI. A separate cohort received sequential treatment of hRspo1 (24 hr and 48 hr post WBI) followed by ICG-001 (150 mg/kg of body weight, 72 hr post-IR).

[3] = test system: asymmetric divisions in mitotic cells of the ventricular zone; test: In vivo Par3 distribution assay of asymmetric versus symmetric divisions; design: species or system mice; details: for number of asymmetric divisions: topical or oral administration to pregnant mice, compared to vehicle control
Text: For example, Bultje et al. (Bultje R Neuron 63, 189-202, 2009) describe an assay to measure asymmetric distributions in the ventricular zone (vz) to evaluate asymmetric divisions during neurogenesis. Essentially this involves treating the animal (either adult or in utero) for a set period of time with compounds (either p.o., s.c., i.v. or topically) with compounds and then sacrificing the animal and examining the Par3 distribution (e.g., via immunohistochemistry) in mitotic cells vs. DNA distribution (e.g., using DAPI staining) Par3 distributes equally among the two daughter cells during symmetric division and unequally (essentially all in one daughter cell) during asymmetric differentiation.

[4] = test system: Wnt pathway in 293T cells; test: TopFlash luciferase β-catenin activation test; assay type: cell-based; details: 24 hours in 1% FCS, alone and with Wnt3A, versus commercial Rspo1 from R&D biosystems
Description: The recombinant cDNA used was SEQ ID NO:11, encoding for recombinant human Rspo1 (SEQ ID NO:12, with StrepII tag). Activity of the purified recombinant Rspo1 was assayed using a β-catenin activation test.
Briefly, 293T cells were transfected with the reporter vector TopFlash, along with TK Renilla (transfection control) using lipofectamine 2000. After the transfection mixture was removed, cells were incubated in 0.1% FCS o/n, and then stimulated with the different inducers at the indicated concentrations in 1% FCS for 24 hours (FIG. 11).

[5] = test system: mouse intestinal organoids; test: Intestinal organoid growth/maintenance assay; assay type: cell-based
Description: The recombinant human Rspo1 was also tested in an intestinal organoid growth/maintenance test. Self-renewal of the small intestinal and colonic epithelium is driven by the proliferation of stem cells and their progenitors; and their maintenance and growth in culture (ex-vivo) requires the activation of the Wnt pathway. Given that it is essential, only functional Rspo1 will be able to maintain the growth of intestinal organoids and lead to their maintenance and proliferation. FIGS. 12A and 12B show, according to particular exemplary aspects, testing of functionality of recombinant human Rspo1 in an intestinal organoid growth/maintenance assay.
Organoids were generated by culturing purified small intestinal crypts in matrigel in Advanced DMEM/F12 supplemented with 500 ng/ml R-spondin 1 [commercial (FIG. 12A) or recombinant (FIG. 12B)], 100 ng/ml EGF and 100 ng/ml Noggin.

## Cc1c[nH]c(-c2cnc(NCCNc3ccc(C#N)cn3)nc2-c2ccc(Cl)cc2Cl)n1 [CHIR]
[1]
  replacement of Rspo1 for maintenance of small intestinal crypt organoid cultures: can be used to replace (for at least up to 4 days) Rspo1

## O=C1[C@H](Cc2ccc(O)cc2)N2C(=O)CCN(C(=O)NCc3ccccc3)[C@H]2CN1Cc1cccc2ccccc12 [ICG-001]
[2]
  mice rescued from radiation lethality: 60%
[3]
  number of asymmetric divisions: does not affect the number of asymmetric divisions
[3]; treatment with excess ICG-001
  effect on the defect in asymmetric divisions caused by IQ-1: corrects the defect in asymmetric divisions caused by IQ-1

## CC(=O)c1ccc(N=NC(C(N)=O)=C2NC(C)(C)Cc3ccccc32)cc1 [IQ-1, reference compound]
[3]; pregnant mice
  number of symmetric divisions: increases the number of symmetric divisions
[3]
  number of asymmetric divisions: decreases the number of asymmetric divisions

## [Cl-].[Li+] [LiCl]
[1]
  replacement of Rspo1 for maintenance of small intestinal crypt organoid cultures: can be used to replace (for at least up to 4 days) Rspo1

## O=c1cc(-c2ccccc2)oc2ccc3ccccc3c12 [beta napthoflavone]
[1]
  replacement of Rspo1 for maintenance of small intestinal crypt organoid cultures: can be used to replace (for at least up to 4 days) Rspo1

B1: recombinant human Rspo1: purified recombinant human R-spondin1, SEQ ID NO:12, with StrepII tag at the c-terminal end (protein)
chain: MRLGLCVVALVLSWTHLTISSRGIKGKRQRRISAEGSQACAKGCELCSEVNGCLKCSPKLFILLERNDIRQVGVCLPSCPPGYFDARNPDMNKCIKCKIEHCEACFSHNFCTKCKEGLYLHKGRCYPACPEGSSAANGTMECSSPAQCEMSEWSPWGPCSKKQQLCGFRRGSEERTRRVLHAPVGDHAACSDTKETRRCTVRRVPCPEGQKRRKGGQGRRENANRNLARKESKEAGAGSRRRKGQQQQQQQGTVGPLTSAGPAESAWSHPQFEK
modifications: C-terminal StrepII tag; human Rspo1 protein variant with SrepII tag (ESAWSHPQFEK) at c-terminus
[4]
  activation of β-catenin (TopFlash luciferase): capable of activating β-catenin by itself and synergizing with Wnt (e.g., Wnt3A) as well as, if not better, than the commercially obtained Rspo1
[5]; 500 ng/ml R-spondin 1
  ability to maintain and induce sprouting (proliferation) of the organoids, versus commercial protein: identical to the commercial protein
[5]; 500 ng/ml R-spondin 1, 100 ng/ml EGF, 100 ng/ml Noggin, matrigel
  maintenance of growth and proliferation of intestinal organoids: capable of maintaining the growth and proliferation of mouse intestinal organoids in culture
